# According to patent US20210108198A1, “APPLICATION OF COMPOUND OR TRADITIONAL CHINESE MEDICINE EXTRACT IN PREPARATION OF NUCLEIC ACID DELIVERY AGENT AND RELATED PRODUCTS THEREOF” (INSTITUTE OF BASIC MEDICAL SCIENCES CHINESE ACADEMY OF …, priority 2017, published 2021):
# “Also recorded” adds a separate entry of the source.
# Experiments:
# [1] = system: A549 cell; experiment: RT-qPCR detection of nucleic acid delivered by lipid into A549 cells; format: cell-based, human; settings: double-stranded HJT-sRNA-m7 100 nM; reverse evaporation method; 12 hours; FIG. 99
# Description: 3.1 NCI-N87 cell (gastric cancer cell), MRC-5 cell (lung fibroblast), A549 cell (lung cancer cell) were cultured to logarithmic growth phase, and then plated to a six-well plate at cell density of 1×10^6/2 mL medium/well; MRC-5 cell was cultured in Eagle's MEM medium (MEM, Gibco); A549 cell was cultured in Ham's F-12 medium (HyClone); NCI-N87 cell was cultured in RPMI-1640 medium (HyClone); followed by incubation overnight at 37° C., and the follow-up experiments were performed after the cells were attached to the walls.
# 4) Lipid nucleic acid mixture: the mixture of lipid and HJT-sRNA-m7 prepared from the step 2 were added into cells and mixed, and the final concentration of RNA was kept at 200 nM.
# 3.3 After co-incubation with the small RNA for 3 hours, the cells were washed 2-3 times with PBS. The cells were harvested with TRIzol lysis buffer, and the total RNA was extracted. The abundance of small RNA that entered cells was detected by RT-qPCR, and the localization of RNA was detected by fluorescence in situ hybridization; protocols of each detection method were as follows:
# 3.3.1 RT-qPCR Detection of Small RNA (Taqman Probe Method)
# 3.3.2 RT-qPCR Detection of Small RNA (SYBR Green Dye Method)
# Mixtures of soybean PC, lipid No. 11 (18:0/18:2) and lipid No. 12 (16:0/18:2), and various small RNA (see below Table 3) were prepared by the reverse evaporation method and then added into A549 cell line (the final concentration of sRNA was 200 nM); the negative control group (control) was directly added with the same concentration of sRNA; the positive control group (RNAimax) was transfected with Lipofectamine RNAimax (transfection reagent 6 μl/well). The abundance of sRNA in the cells was detected by Taqman probe after 3 hours, and the relative expression level of sRNA was calculated by 2-ΔCt method.
# 3.1.3 After co-incubation with cells for 12-24 hours, the cells were washed twice with PBS. The cells were harvested with TRIzol lysis buffer (purchased from Sigma-Aldrich), and total RNA was extracted. The abundance of HJT-sRNA-m7 that entered the cells was detected by RT-qPCR; the protocols were as follows:
# 4368813) was used to reverse transcribe sRNA to cDNA by stem-loop method (see, e.g. Real-time quantification of microRNAs by stem-loop RT-PCR, Nucleic Acids Res. 2005 Nov. 27; 33(20):e179, incorporated by reference herein).
# [2] = system: A549 cells; experiment: Confocal fluorescence microscopy of nucleic acid delivered by lipid in cells; format: cell-based, human; settings: 4 μl lipid, boiling method; 6 hours of co-incubation
# Description: Experimental materials: A549 cells (purchased from the Cell Center of the Chinese Academy of Medical Sciences), PGY-sRNA-6-Cy3 (purchased from Ribobio Biotechnology Co., Ltd.), lipid No. 41, Zeiss LSM780 (purchased from Zeiss, Germany), Alexa Fluor® 488 phalloidin (purchased from Invitrogen, USA), DAPI (purchased from Invitrogen, USA), paraformaldehyde (purchased from sigma, USA).
# (§1) Experimental methods: PGY-sRNA-6-FAM was dissolved in 100 μl water, mixed with 4 μl lipid, and prepared by the boiling method. Then the mixture was dropped into A549 cells, and after 6 hours of co-incubation, the samples were washed three times with PBS, fixed with 4% paraformaldehyde, washed three times with PBS, stained with Alexa Fluor® 488 phalloidin for 30 min, washed 3 times with PBS, and stained with DAPI for 5 min, washed with PBS, and then sealed.
# as §1, with “method:” for “methods:”, “water, and” for “water,”, “by” for “by the”, “Then,” for “Then”, “PBS washed,” for “washed with PBS,”
# [3] = In vivo delivery of single-stranded sRNA by single lipid via gavage (blood, stomach, small intestine, liver); set-up: species or system C57 mice; settings: 10 μl lipid, 1 nmol each sRNA (PGY-sRNA-23/-26/-32), heating method, 6 hours or 12 hours after administration
# Text: Tissues sampled: live/stomach/small intestine.
# [4] = system: A549 cells; experiment: Digital PCR (ddPCR) detection of the efficiency of nucleic acid delivery by lipid; format: cell-based, human
# Description: (§2) 2.2 Experimental method: the total cellular RNA was collected and extracted by TRIzol lysis buffer according to the above methods, and reverse transcribed to cDNA using High capacity cRNA Reverse Transcription Kit, and the cDNA from different groups was subject to digital PCR reaction. Refering to the QX200 Droplet Reader and QuantaSoft Software manual for the protocols, the results were analyzed using QuantaSoft software.
# as §2, with “method:” for “method: the”, “total” for “total cellular”, “method,” for “methods,”, “subjected” for “subject”, “Refer” for “Refering”, “protocols;” for “protocols,”
# (§3) 2.2 Experimental method: Total RNA was collected and extracted by TRIzol lysis buffer according to the above method, and reverse transcribed to cDNA using TaqMan™ MicroRNA Reverse Transcription KitHigh, and the cDNA from different groups was subjected to digital PCR reaction. Refer to the QX200 Droplet Reader and QuantaSoft Software manual for the protocols; the results were analyzed using QuantaSoft software.
# as §3, with “reversed” for “reverse transcribed”, “High capacity cRNA” for “TaqMan™ MicroRNA”, “Kit,” for “KitHigh,”
# [5] = system: fibronectin protein expression in MRC-5 cells; experiment: Western blot of fibronectin after lipid-mediated delivery of anti-fibrotic HJT-sRNA into TGF-β1 stimulated MRC-5 cells; format: cell-based; settings: nucleic acid 400 nM; TGF-β1 3 ng/mL; preparation method not given; FIG. 102
# Description: 3.3.1 MRC-5 cell (pulmonary embryonic fibroblast), and A549 cell (human lung adenocarcinoma cell) were cultured to logarithmic growth phase, and then plated into 12-well plates at a cell density of 6×10^5/1 mL medium/well; MRC-5 cells were cultured in Eagle's MEM medium (MEM, Gibco); A549 cells were cultured in Ham's F-12 medium (HyClone); followed by incubation overnight at 37° C., and the follow-up experiments were performed after the cells were attached to the walls.
# 4) Lipid nucleic acid mixture: the mixture of lipid and nucleic acid prepared from the step 2 were added into cells and mixed, and the final concentration of nucleic acid was 400 nM.
# 3.3.3 After 24 hours of treatment, the cells were stimulated with the stimulant (1 μg/mL poly (I:C) (P1530, Sigma-Aldrich) as double-stranded RNA viruses mimetics) or 3 ng/mL transforming growth factor TGFβ1 (Pepro Tech)). […]
smiles,measurement,setting,value
"CCCCCCCC/C=C\CCCCCCCCCCCC(=O)O[C@H](COC(=O)CCCCCCCCCCCCCCC)COP(=O)(O)OCCN [No. 40, (2-aminoethoxy)[(2R)-2-[(13Z)-docos-13-enoyloxy]-3-(hexadecanoyloxy)propoxy]phosphinic acid]",delivery effect relative to RNAiMAX (real-time PCR),[1],½
same,entry of PGY-sRNA-6-Cy3 observed under the confocal microscopy,[2],could effectively deliver single-stranded RNA into A549 cells
same,entry of single-stranded small RNA into mouse blood (RT-qPCR),[3],could effectively deliver sRNA single-stranded nucleic acid into mouse blood via oral administration; also recorded: the delivery effect was better than POPC and Lipofectamine RNAiMAX
same,delivery of HJT-sRNA-m7 dsRNA (ddPCR),"[4]; boiling method, 6 hours",could effectively deliver HJT-sRNA-m7 dsRNA into A549 cells
same,delivery of HJT-sRNA-m7 dsRNA (ddPCR),"[4]; reverse evaporation method, 6 hours (No. 39: 6 hours, 12 hours)",could effectively deliver HJT-sRNA-m7 dsRNA into A549 cells
same,fibronectin protein expression after delivery of double-stranded HJT-sRNA-m7 (Western blot),[5],to down-regulate fibronectin protein expression
